Source: ChEMBL document CHEMBL3880423, “Benzamide derivatives as histone deacetylase inhibitors with potent differentiation and anti-proliferation activity” (2009)
Active and inactive are the calls of the source. The rule behind the calls is not given here.

Experiments:
Format in all cases: cell-based
[1] = biological target: Estrogen receptor beta (Homo sapiens) (UniProt Q92731); test: Activation of ERbeta (unknown origin) expressed in human U2OS cells at 1 uM in presence of 0.01 uM E2 incubated for 24 hrs by luciferase reporter gene assay
[2] = biological target: Estrogen receptor beta (Homo sapiens) (UniProt Q92731); test: Activation of ERbeta (unknown origin) expressed in human U2OS cells at 1 uM incubated for 24 hrs by luciferase reporter gene assay
[3] = biological target: T1, Estrogen receptor (Homo sapiens) (UniProt P03372); test: Activation of ERalpha (unknown origin) expressed in human U2OS cells at 1 uM in presence of 0.01 uM E2 incubated for 24 hrs by luciferase reporter gene assay
T1 sequence (whole entry): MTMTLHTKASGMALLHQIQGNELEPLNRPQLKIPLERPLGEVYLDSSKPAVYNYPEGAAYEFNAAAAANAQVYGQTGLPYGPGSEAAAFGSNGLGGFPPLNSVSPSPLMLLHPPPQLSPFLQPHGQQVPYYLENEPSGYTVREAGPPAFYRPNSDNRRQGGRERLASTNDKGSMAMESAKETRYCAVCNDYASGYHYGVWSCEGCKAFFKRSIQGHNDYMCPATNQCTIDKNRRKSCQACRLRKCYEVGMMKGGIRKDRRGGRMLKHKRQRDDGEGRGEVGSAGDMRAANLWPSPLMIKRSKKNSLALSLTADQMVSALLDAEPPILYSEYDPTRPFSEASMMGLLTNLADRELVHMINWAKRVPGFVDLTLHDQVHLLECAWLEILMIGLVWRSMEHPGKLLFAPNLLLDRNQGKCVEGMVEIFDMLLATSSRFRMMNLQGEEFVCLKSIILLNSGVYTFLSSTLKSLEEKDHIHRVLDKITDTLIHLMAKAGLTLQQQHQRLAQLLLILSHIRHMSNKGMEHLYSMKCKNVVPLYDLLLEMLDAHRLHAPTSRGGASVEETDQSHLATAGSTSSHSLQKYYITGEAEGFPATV

[4] = biological target: T2, Peroxisome proliferator-activated receptor gamma (Homo sapiens) (UniProt P37231); test: Activation of PPARG (unknown origin) expressed in human U2OS cells at 1 uM incubated for 24 hrs by luciferase reporter gene assay
T2 sequence (whole entry): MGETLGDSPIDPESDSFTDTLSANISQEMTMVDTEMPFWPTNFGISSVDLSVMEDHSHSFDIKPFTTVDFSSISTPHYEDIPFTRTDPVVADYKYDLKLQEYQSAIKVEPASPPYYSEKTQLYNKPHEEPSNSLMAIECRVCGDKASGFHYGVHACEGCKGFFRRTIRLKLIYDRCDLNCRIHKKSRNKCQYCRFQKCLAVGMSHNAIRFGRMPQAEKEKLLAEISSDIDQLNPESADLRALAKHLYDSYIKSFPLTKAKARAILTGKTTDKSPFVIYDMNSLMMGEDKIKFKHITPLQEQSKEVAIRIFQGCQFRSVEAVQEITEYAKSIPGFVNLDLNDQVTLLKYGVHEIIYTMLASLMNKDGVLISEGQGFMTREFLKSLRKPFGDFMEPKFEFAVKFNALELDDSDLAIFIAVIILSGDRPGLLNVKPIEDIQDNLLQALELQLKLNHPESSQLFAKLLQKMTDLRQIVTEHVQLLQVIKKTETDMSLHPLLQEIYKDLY

[5] = biological target: T1, Estrogen receptor (Homo sapiens); test: Activation of ERalpha (unknown origin) expressed in human U2OS cells at 1 uM incubated for 24 hrs by luciferase reporter gene assay
[6] = biological target: T3, Glucocorticoid receptor (Homo sapiens) (UniProt P04150); test: Activation of glulcocorticoid receptor (unknown origin) expressed in human U2OS cells at 1 uM incubated for 24 hrs by luciferase reporter gene assay
T3 sequence (whole entry): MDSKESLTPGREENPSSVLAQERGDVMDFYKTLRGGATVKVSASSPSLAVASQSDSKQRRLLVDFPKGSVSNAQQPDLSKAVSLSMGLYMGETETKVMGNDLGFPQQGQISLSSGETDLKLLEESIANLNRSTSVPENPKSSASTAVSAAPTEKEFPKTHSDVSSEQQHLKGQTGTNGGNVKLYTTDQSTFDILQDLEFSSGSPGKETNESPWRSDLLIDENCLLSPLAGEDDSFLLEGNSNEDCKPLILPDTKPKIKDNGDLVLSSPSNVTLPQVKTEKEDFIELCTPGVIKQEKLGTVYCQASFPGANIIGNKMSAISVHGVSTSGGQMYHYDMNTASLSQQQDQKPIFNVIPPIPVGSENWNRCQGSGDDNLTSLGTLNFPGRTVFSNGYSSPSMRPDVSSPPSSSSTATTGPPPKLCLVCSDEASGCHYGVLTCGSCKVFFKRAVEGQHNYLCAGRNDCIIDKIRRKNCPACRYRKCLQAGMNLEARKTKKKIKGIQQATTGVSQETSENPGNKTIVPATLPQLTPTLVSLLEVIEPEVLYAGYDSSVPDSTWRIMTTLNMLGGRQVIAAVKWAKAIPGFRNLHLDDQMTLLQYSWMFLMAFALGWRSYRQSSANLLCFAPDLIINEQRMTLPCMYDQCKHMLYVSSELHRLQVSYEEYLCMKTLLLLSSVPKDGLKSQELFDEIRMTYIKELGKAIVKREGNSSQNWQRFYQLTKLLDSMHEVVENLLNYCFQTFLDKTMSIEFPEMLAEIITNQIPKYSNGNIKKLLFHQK

[7] = biological target: T2, Peroxisome proliferator-activated receptor gamma (Homo sapiens); test: Activation of PPARG (unknown origin) expressed in human U2OS cells at 1 uM in presence of 10 uM rosiglitazone incubated for 24 hrs by luciferase reporter gene assay
[8] = biological target: T3, Glucocorticoid receptor (Homo sapiens); test: Activation of glulcocorticoid receptor (unknown origin) expressed in human U2OS cells at 1 uM in presence of 0.1 uM dexamethasone incubated for 24 hrs by luciferase reporter gene assay
[9] = biological target: T3, Glucocorticoid receptor (Homo sapiens); test: Activation of glulcocorticoid receptor (unknown origin) expressed in human U2OS cells at 0.2 uM in presence of 0.1 uM dexamethasone incubated for 24 hrs by luciferase reporter gene assay
[10] = biological target: T1, Estrogen receptor (Homo sapiens); test: Activation of ERalpha (unknown origin) expressed in human U2OS cells at 0.2 uM incubated for 24 hrs by luciferase reporter gene assay
[11] = biological target: T3, Glucocorticoid receptor (Homo sapiens); test: Activation of glulcocorticoid receptor (unknown origin) expressed in human U2OS cells at 0.2 uM incubated for 24 hrs by luciferase reporter gene assay
[12] = biological target: Estrogen receptor beta (Homo sapiens) (UniProt Q92731); test: Activation of ERbeta (unknown origin) expressed in human U2OS cells at 0.2 uM incubated for 24 hrs by luciferase reporter gene assay
[13] = biological target: T2, Peroxisome proliferator-activated receptor gamma (Homo sapiens); test: Activation of PPARG (unknown origin) expressed in human U2OS cells at 0.2 uM incubated for 24 hrs by luciferase reporter gene assay
[14] = biological target: Estrogen receptor beta (Homo sapiens) (UniProt Q92731); test: Activation of ERbeta (unknown origin) expressed in human U2OS cells at 0.2 uM in presence of 0.01 uM E2 incubated for 24 hrs by luciferase reporter gene assay
[15] = biological target: T2, Peroxisome proliferator-activated receptor gamma (Homo sapiens); test: Activation of PPARG (unknown origin) expressed in human U2OS cells at 0.2 uM in presence of 10 uM rosiglitazone incubated for 24 hrs by luciferase reporter gene assay
[16] = biological target: T1, Estrogen receptor (Homo sapiens); test: Activation of ERalpha (unknown origin) expressed in human U2OS cells at 0.2 uM in presence of 0.01 uM E2 incubated for 24 hrs by luciferase reporter gene assay

Sequence of Estrogen receptor beta (Homo sapiens) (Q92731 whole entry): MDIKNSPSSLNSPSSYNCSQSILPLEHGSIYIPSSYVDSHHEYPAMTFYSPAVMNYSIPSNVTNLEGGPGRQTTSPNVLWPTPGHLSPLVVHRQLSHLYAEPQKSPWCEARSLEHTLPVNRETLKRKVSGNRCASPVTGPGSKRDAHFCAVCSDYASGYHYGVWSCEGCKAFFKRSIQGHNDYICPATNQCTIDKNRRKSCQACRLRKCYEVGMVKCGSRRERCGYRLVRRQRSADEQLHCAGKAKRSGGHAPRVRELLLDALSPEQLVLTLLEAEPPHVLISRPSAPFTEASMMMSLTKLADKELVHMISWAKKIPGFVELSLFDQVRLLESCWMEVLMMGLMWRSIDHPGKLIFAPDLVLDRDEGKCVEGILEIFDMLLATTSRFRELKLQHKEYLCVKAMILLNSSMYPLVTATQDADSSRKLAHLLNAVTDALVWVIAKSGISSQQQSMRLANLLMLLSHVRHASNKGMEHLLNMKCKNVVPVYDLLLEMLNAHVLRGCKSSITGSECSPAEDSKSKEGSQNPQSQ

Activity [1]	Activity [2]	Activity [3]	Activity [4]	Activity [5]	Activity [6]	Activity [7]	Activity [8]	Activity [9]	Activity [10]	Activity [11]	Activity [12]	Activity [13]	Activity [14]	Activity [15]	Activity [16]	Compound
Active	Active	Active	Active	Active	Active	Active	Active	–	–	–	–	–	–	–	–	Nc1cc(F)ccc1NC(=O)c1ccc(CNC(=O)/C=C/c2cccnc2)cc1
–	–	–	–	–	–	–	–	Active	Active	Active	Active	Active	Active	Active	Active	CC(/C=C/C(=O)NO)=C\[C@@H](C)C(=O)c1ccc(N(C)C)cc1
Active	Active	Active	Active	Active	Active	Active	Active	–	–	–	–	–	–	–	–	Nc1ccccc1NC(=O)c1ccc(CNC(=O)OCc2cccnc2)cc1
